Consider 18 compounds from patent US7674819B2 (Warner-Lambert Company LLC, priority 2005, dated 2010).

Substitutions are numbered along the chain they refer to. Like-named read-outs stand apart in the source and are kept apart here.

Assay [1] has as its target T1, androgen receptor (Homo sapiens, UniProt P10275).
T1 sequence (P10275 1-920 Q868H): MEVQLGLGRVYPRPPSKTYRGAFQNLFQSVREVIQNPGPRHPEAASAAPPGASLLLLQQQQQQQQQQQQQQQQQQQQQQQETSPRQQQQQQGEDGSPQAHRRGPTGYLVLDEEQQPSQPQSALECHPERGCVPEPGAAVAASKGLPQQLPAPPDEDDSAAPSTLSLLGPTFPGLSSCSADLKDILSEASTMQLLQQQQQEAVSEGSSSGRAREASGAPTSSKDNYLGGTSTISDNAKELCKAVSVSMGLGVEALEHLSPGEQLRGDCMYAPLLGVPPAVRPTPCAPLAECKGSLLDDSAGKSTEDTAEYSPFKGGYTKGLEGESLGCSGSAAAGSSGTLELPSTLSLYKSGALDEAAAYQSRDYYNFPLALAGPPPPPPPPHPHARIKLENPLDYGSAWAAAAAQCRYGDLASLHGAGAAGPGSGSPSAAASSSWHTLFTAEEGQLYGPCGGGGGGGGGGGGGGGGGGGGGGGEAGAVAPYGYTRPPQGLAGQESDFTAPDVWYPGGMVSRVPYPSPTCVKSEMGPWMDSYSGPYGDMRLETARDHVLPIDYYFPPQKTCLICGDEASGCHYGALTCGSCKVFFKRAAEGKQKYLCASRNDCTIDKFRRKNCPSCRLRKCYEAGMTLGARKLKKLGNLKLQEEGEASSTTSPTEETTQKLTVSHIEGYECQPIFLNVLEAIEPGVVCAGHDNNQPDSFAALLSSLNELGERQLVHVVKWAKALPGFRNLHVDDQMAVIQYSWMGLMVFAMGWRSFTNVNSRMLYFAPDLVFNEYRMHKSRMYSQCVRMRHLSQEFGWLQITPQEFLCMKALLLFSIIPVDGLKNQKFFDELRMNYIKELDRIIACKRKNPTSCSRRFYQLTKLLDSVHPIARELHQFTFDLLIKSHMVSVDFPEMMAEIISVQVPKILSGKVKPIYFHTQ
In words: AR Antagonist Cell Assay (MDA-MB453-MMTV clone 54-19, luciferase reporter). In kind it is cell-based. Particulars: inhibition of induction by DHT (final concentration at 100 μM), 17 hr, compound 0.32-1000 nM, mean of multiple tests. The protocol: The compounds ability to antagonize the effects of androgen on the androgen receptor were determined in a whole cell assay as described immediately below.
Experimental Procedure for AR Antagonist Cell Assay
This cell line is a stable transfected cell line with MDA-MB453 cell background (a human breast tumor cell line expressing androgen receptor). A MMTV minimal promoter containing ARE was first cloned in front of a firefly luciferase reporter gene. Then the cascade was cloned into transfection vector pUV120puro. […] Puromycin resistant stable cell line was selected.
Cell Culture Media and Reagents:
Plating medium: DMEM (phenol red free), 10% charcoal treated HyClone serum, 1% L-glutamine
Assay medium: DMEM (phenol red free), 1% charcoal treated HyClone serum, 1% L-glutamine, 1% penicillin/streptomycin
Cells are maintained in culture medium, splitting cells when they reach 80-90% confluence
To test compounds, 10,000 cells/well are plated to opaque 96 cell culture plate in 100 ul/well plating medium, culture for overnight at 37° C. in cell culture incubator
Add 10 ul/well freshly prepared DHT (final concentration at […]) to each well, incubate at 37° C. for 17 hr (overnight)
Add 50 ul/well 3× luciferase buffer, incubate at room temperature for 5 minutes, then count on Luminometer
The results are reported as the mean of multiple tests described below (the numbers of tests are indicated in the footnote). N.D. denotes that the compound was not tested.
On the technique in general: Reporter assays use an easily measured gene product as a stand-in for the process of interest.

Assay [2] addresses T2, hAR (Homo sapiens, UniProt P10275).
T2 sequence (P10275 1-920): T1 sequence (P10275 1-920 Q868H) with H868Q
Nature of the assay: Competitive binding of 3H-DHT to baculovirus/Sf9 generated hAR extracts. Particulars: one hour at 4° C., mean of multiple tests. In outline: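 Baculovirus/Sf9-expressed hAR extract incubated with test compound, hydroxylapatite and 1 nM 3H-DHT tracer for 1 h at 4° C, then washed free of unbound tracer. Affinity given as concentration inhibiting half of maximal 3H-DHT binding.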

Where [3] appears, read: IC50, concentration at which one half of maximum binding of 1 nM 3H-DHT to hAR is inhibited.
[4] abbreviates: concentration at which one half of maximum binding of 1 nM 3H-DHT to hAR is inhibited, read-out: IC50.

As to `CC1(C)CN(Cc2ccccc2F)C(=O)C1Oc1ccc(C#N)c(C(F)(F)F)c1` (stereo not drawn) [Example 15, 4-[1-(2-Fluoro-benzyl)-4,4-dimethyl-2-oxo-pyrrolidin-3-yloxy]-2-trifluoromethyl-benzonitrile], the results for the IC50 in assay [1] and in assay [2] (setting [3]) were 71 nM and 48 nM, respectively.

Regarding `CC1(C)CN(Cc2ccccc2F)C(=O)C1Oc1ccc(C#N)c(C(F)(F)F)c1` (stereo not drawn) [Example 16, 4-[1-(2-Fluoro-benzyl)-4,4-dimethyl-2-oxo-pyrrolidin-3-yloxy]-2-trifluoromethyl-benzonitrile], the figures for the IC50 in assay [1] and in assay [2] (setting [3]) were 43 nM and 26 nM, respectively.

In the case of `CC1(C)CN(Cc2ccc(F)cc2)C(=O)C1Oc1ccc(C#N)c(C(F)(F)F)c1` (stereo not drawn) [Example 17, 4-[1-(4-Fluoro-benzyl)-4,4-dimethyl-2-oxo-pyrrolidin-3-yloxy]-2-trifluoromethyl-benzonitrile], the IC50 in assay [1] amounted to 214 nM; in assay [2] (setting [3]), 144 nM.

Take `CC1(C)CN(Cc2cc(O)cc(O)c2)C(=O)C1Oc1ccc(C#N)c(C(F)(F)F)c1` (stereo not drawn) [Example 18, 4-[1-(3,5-Dihydroxy-benzyl)-4,4-dimethyl-2-oxo-pyrrolidin-3-yloxy]-2-trifluoromethyl-benzonitrile]: the 50% inhibitory concentration (IC50) was 8 nM in assay [1] and 45 nM in assay [2] (setting [3]).

Regarding `CCCCN1CC(C)(C)C(Oc2ccc(C#N)c(C(F)(F)F)c2)C1=O` (stereo not drawn) [Example 19, 4-(1-Butyl-4,4-dimethyl-2-oxo-pyrrolidin-3-yloxy)-2-trifluoromethyl-benzonitrile], the IC50 in assay [1] turned out to be 19 nM; in assay [2] (setting [3]) it was 152 nM.

For the compound `CC(C)OC(=O)c1ccc(CN2CC(C)(C)C(Oc3ccc(C#N)c(C(F)(F)F)c3)C2=O)o1` (stereo not drawn) [Example 27, 5-[3-(4-Cyano-3-trifluoromethyl-phenoxy)-4,4-dimethyl-2-oxo-pyrrolidin-1-ylmethyl]-furan-2-carboxylic acid isopropyl ester], the IC50 in assay [1] (read-out: IC50) came to 368 nM; in assay [2] (setting [3]), 44 nM.

Take `COC(=O)c1ccc(CN2CC(C)(C)C(Oc3ccc(C#N)c(C(F)(F)F)c3)C2=O)o1` (stereo not drawn) [Example 28, 5-[3-(4-Cyano-3-trifluoromethyl-phenoxy)-4,4-dimethyl-2-oxo-pyrrolidin-1-ylmethyl]-furan-2-carboxylic acid methyl ester]: the IC50 came to 317 nM in assay [1] (read-out: IC50) and 310 nM in assay [2] (setting [4]).

For `CCOC(=O)c1ccc(CN2CC(C)(C)C(Oc3ccc(C#N)c(C(F)(F)F)c3)C2=O)o1` (stereo not drawn) [Example 29, 5-[3-(4-Cyano-3-trifluoromethyl-phenoxy)-4,4-dimethyl-2-oxo-pyrrolidin-1-ylmethyl]-furan-2-carboxylic acid ethyl ester], the IC50 is 124 nM in assay [1] and 119 nM in assay [2] (setting [3]).

Consider `COC(=O)c1csc(CN2CC(C)(C)C(Oc3ccc(C#N)c(C(F)(F)F)c3)C2=O)n1` (stereo not drawn) [Example 30, 2-[3-(4-Cyano-3-trifluoromethyl-phenoxy)-4,4-dimethyl-2-oxo-pyrrolidin-1-ylmethyl]-thiazole-4-carboxylic acid methyl ester], for which the IC50 worked out at 813 nM in assay [1] and 215 nM in assay [2] (setting [3]).

For the compound `CC1(C)CN(Cc2ccncc2)C(=O)C1Oc1ccc(C#N)c(C(F)(F)F)c1` (stereo not drawn) [Example 35, 4-(4,4-Dimethyl-2-oxo-1-pyridin-4-ylmethyl-pyrrolidin-3-yloxy)-2-trifluoromethyl-benzonitrile], the IC50 in assay [1] worked out at 486 nM; in assay [2] (setting [3]) it was 128 nM.

Turning to `COC(=O)c1ccc(CN2CC(C)(C)C(Oc3ccc(C#N)c(C(F)(F)F)c3)C2=O)cc1` (stereo not drawn) [Example 37, 4-[3-(4-Cyano-3-trifluoromethyl-phenoxy)-4,4-dimethyl-2-oxo-pyrrolidin-1-ylmethyl]-benzoic acid methyl ester], the IC50 in assay [1] is 84 nM; in assay [2] (setting [3]) it was 47 nM.

Consider `CC1(C)CN(Cc2ccc3nsnc3c2)C(=O)C1Oc1ccc(C#N)c(C(F)(F)F)c1` (stereo not drawn) [Example 39, 4-(1-Benzo[1,2,5]thiadiazol-5-ylmethyl-4,4-dimethyl-2-oxo-pyrrolidin-3-yloxy)-2-trifluoromethyl-benzonitrile], for which the values for the IC50 in assay [1] and in assay [2] (setting [3]) were 74 nM and 64 nM, respectively.

For `CC1(C)CN(Cc2nc3ccccc3s2)C(=O)C1Oc1ccc(C#N)c(C(F)(F)F)c1` (stereo not drawn) [Example 40, 4-(1-Benzothiazol-2-ylmethyl-4,4-dimethyl-2-oxo-pyrrolidin-3-yloxy)-2-trifluoromethyl-benzonitrile], the IC50 in assay [1] turned out to be 50 nM; in assay [2] (setting [3]), 43 nM.

For `CC1(C)CN(Cc2cccc3nsnc23)C(=O)C1Oc1ccc(C#N)c(C(F)(F)F)c1` (stereo not drawn) [Example 41, 4-(1-Benzo[1,2,5]thiadiazol-4-ylmethyl-4,4-dimethyl-2-oxo-pyrrolidin-3-yloxy)-2-trifluoromethyl-benzonitrile], the IC50 in assay [1] (read-out: IC50) was 72 nM; in assay [2] (setting [4]), 107 nM.

Turning to `CC1(C)CN(Cc2cccc(OC(F)F)c2)C(=O)C1Oc1ccc(C#N)c(C(F)(F)F)c1` (stereo not drawn) [Example 42, 4-[1-(3-Difluoromethoxy-benzyl)-4,4-dimethyl-2-oxo-pyrrolidin-3-yloxy]-2-trifluoromethyl-benzonitrile], the values for the IC50 in assay [1] (read-out: IC50) and in assay [2] (setting [4]) were 219 nM and 120 nM, respectively.

For `CC1(C)CN(Cc2cccc(C#N)c2)C(=O)C1Oc1ccc(C#N)c(C(F)(F)F)c1` (stereo not drawn) [Example 45], the IC50 in assay [1] and in assay [2] (setting [3]) was 50 nM throughout.

`CC1(C)CN(Cc2noc(-c3ccccc3)n2)C(=O)C1Oc1ccc(C#N)c(C(F)(F)F)c1` (stereo not drawn) [Example 46, 4-[4,4-Dimethyl-2-oxo-1-(5-phenyl-[1,2,4]oxadiazol-3-ylmethyl)-pyrrolidin-3-yloxy]-2-trifluoromethyl-benzonitrile]: the IC50 in assay [1] came out at 43 nM; in assay [2] (setting [3]) it was 90 nM.

For `CC1(C)CN(Cc2ccccc2C#N)C(=O)C1Oc1ccc(C#N)c(C(F)(F)F)c1` (stereo not drawn) [Example 47, 4-[1-(2-Cyano-benzyl)-4,4-dimethyl-2-oxo-pyrrolidin-3-yloxy]-2-trifluoromethyl-benzonitrile], the IC50 in assay [1] is 42 nM; in assay [2] (setting [3]) it was 83 nM.

By IC50 is commonly meant the concentration at which inhibition is half-maximal.
